This is an account of results in PMC10893172, “Identification of Triazolopyrimidinyl Scaffold SARS-CoV-2 Papain-Like Protease (PL^pro) Inhibitor” (Pharmaceutics, 2024).

Like-named read-outs stand apart in the source and are kept apart here.

The subject of test [1] is SARS-CoV and SARS-CoV-2 PL^pro protein. Particulars: known PL^pro inhibitors, literature values; cited from earlier work.
Test [2] addresses SARS-CoV-2 papain-like protease (PL^pro) (Severe acute respiratory syndrome coronavirus 2, UniProt P0DTD1). Put plainly: biochemical.
Setting [3] is: 0.2 µM PL^pro, 30 µM substrate, 30 min preincubation at 25 °C, endpoint fluorescence after 2 h, triplicate, read-out: IC50.

What is called IC50 is the concentration needed to halve the response being measured. As to “5-Amino-2-methyl-N-[2-(1-naphthyl)ethyl]-benzamide [GRL0617]”, the IC50 in test [1] is 1.61 ± 0.09 µM. With `C[C@H](c1cccc2ccccc12)N1CCC(C(=O)NCc2cccc(F)c2)CC1` [Hit 3K], the IC50 in test [1] is 0.15 ± 0.01 µM. For `Cc1cc2nn(CC(=O)NCc3ccco3)c(=O)n2c(Nc2ccc(C)c(C)c2)n1` [Hit 372], in test [2] (setting [3]), the IC50 was 82 ± 34 µM. The molecule `O=C(N/N=C/c1cccc(OC2CSC2)c1)c1ccccc1O` [Hit 826] had an IC50 in test [2] of 328 ± 33 µM. Take `Cn1nccc1-c1cc(C(=O)NCc2ccc(S(C)(=O)=O)cn2)c(=O)n(-c2cccc(C(F)(F)F)c2)c1` [Hit 903]: in test [2] (setting [3]), the half-inhibitory concentration (IC50) amounted to 881 ± 41 µM. Consider `Cc1ccc(C)c(NC(=O)Cn2nc3n(C)c(=O)c4c(c(-c5ccccc5)cn4C)n3c2=O)c1` [Hit 922], for which the IC50 in test [2] (setting [3]) was 439 ± 43 µM. In the case of `Nc1nc2[nH]cnc2c(=S)[nH]1` [Tioguanin (6-TG)], the IC50 in test [1] is 72 ± 12 µM.
